Laboratory results reported in patent US5324726A, “Benzodiazepine analogs” (Merck & Co., Inc., priority 1992, dated 1994).
Entries after “also recorded” stand apart in the source; their conditions may differ. Square brackets hold non-standard residues; d marks the D form. Peptide text beside a SMILES is read from it. * marks the point of attachment. sY = N[C@@H](Cc1ccc(OS(=O)(=O)O)cc1)C(=O)O; Cbz = O=C(OCc1ccccc1)*; Boc = CC(C)(C)OC(=O)*

What was measured:
[1] = tested on: CCK receptor; details: background literature; cited from earlier work
[2] = biological target: T1, CCK receptor, brain (cerebral cortex) (Cavia porcellus, UniProt H0VZC5); test: CCK Receptor Binding (Brain): inhibition of 125I-CCK(-33) binding; parameters: species or system guinea pig (Male Hartley); details: guinea pig cerebral cortex membranes
T1 construct: Cerebral cortex was dissected and used as a receptor source; from tissue; host or cells: guinea pig cerebral cortex membranes
T1 sequence (H0VZC5 1-426): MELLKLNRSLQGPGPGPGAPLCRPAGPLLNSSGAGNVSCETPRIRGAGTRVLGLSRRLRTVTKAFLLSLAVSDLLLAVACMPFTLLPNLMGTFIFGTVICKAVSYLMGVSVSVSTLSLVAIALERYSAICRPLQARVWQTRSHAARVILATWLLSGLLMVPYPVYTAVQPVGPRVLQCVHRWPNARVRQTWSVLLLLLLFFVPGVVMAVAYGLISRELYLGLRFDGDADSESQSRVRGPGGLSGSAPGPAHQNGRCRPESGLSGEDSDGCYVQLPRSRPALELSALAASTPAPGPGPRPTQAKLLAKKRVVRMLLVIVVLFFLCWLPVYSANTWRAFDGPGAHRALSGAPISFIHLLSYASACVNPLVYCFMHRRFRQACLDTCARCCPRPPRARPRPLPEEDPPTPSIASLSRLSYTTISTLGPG
Procedure: 2. CCK Receptor Binding (Brain)
CCK-33 was radiolabeled and the binding was performed according to the description for the pancreas method with modifications according to Saito et al., J. Neurochem. 37:483-490, 1981.
Male Hartley guinea pigs (300-500 g) were sacrificed by decapitation and the brains were removed and placed in ice-cold 50 mM, Tris HCl plus 7.58 g/l Trizma-7.4 (pH 7.4 at 25° C.). Cerebral cortex was dissected and used as a receptor source. Each gram of fresh guinea pig brain tissue was homogenized in 10 ml of Tris/Trizma buffer with a Brinkman polytron PT-10. The homogenates were centrifuged at 42,000 g for 15 minutes. Pellets were resuspended in Tris Buffer, centrifuged as above and resuspended in 200 volumes of binding assay buffer (10 mM N-2-hydroxyethyl-piperazine-N'-2-ethane sulfonic acid (HEPES), 5 mM MgCl2, 0.25 mg/ml bacitracin, 1 mM ethylene glycol-bis-(β-aminoethylether-N,N'-tetraadetic acid) (EGTA), and 0.4% bovine serum albumin (BSA)). […] All assays were run in duplicate or triplicate. The reaction mixtures were incubated at 25° C. for 2 hours and centrifuged in a Beckman Microfuge (4 minutes) immediately after adding 1 ml of ice-cold incubation buffer. The supernatant was aspirated and discarded, pellets were counted with a Beckman gamma 5000.

[3] = biological target: T2, CCK receptor, pancreas (Rattus norvegicus, UniProt P30551); test: CCK Receptor Binding (Pancreas): inhibition of 125I-CCK(-33) binding; parameters: species or system rat (Male Sprague-Dawley); details: protease inhibitors added to the binding assay
T2 construct: The whole pancreas was dissected free of fat tissue and was homogenized; from tissue; host or cells: rat pancreas membranes
T2 sequence (P30551 1-444): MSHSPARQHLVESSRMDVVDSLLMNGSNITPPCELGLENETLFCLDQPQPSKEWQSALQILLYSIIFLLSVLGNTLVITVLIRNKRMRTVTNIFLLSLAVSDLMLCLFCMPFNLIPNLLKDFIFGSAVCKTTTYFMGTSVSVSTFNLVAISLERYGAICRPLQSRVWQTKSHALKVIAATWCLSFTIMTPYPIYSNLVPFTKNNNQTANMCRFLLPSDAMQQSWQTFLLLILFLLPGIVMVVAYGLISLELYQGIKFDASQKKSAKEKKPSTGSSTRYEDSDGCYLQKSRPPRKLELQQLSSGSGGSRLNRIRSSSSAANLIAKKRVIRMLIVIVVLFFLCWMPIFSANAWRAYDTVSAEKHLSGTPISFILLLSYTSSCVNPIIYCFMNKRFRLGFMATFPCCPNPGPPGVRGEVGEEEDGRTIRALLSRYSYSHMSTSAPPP
Procedure: 1. CCK Receptor Binding (Pancreas)
CCK-33 was radiolabeled with ^125 I-Bolton Hunter reagent (2000 Ci/mmole) as described by Sankara et al. (J. Biol. Chem. 254: 9349-9351, 1979). Receptor binding was performed according to Innis and Snyder (Proc. Natl. Acad. Sci. 77, 6917-6921, 1980) with the minor modification of adding the additional protease inhibitors, phenylmethane sulfonyl fluoride and o-phenanthroline. The latter two compounds have no effect on the ^125 -CCK receptor binding assay.
Male Sprague-Dawley rats (200-350 g) were sacrificed by decapitation. The whole pancreas was dissected free of fat tissue and was homogenized in 20 volumes of ice-cold 50 mM, Tris HCl (pH 7.7 at 25° C.) with a Brinkmann Polytron PT 10. The homogenates were centrifuged at 48,000 g for 10 min. Pellets were resuspended in Tris Buffer, centrifuged as above and resuspended in 200 volumes of binding assay buffer (50 mM Tris HCl, pH 7.7 at 25° C., 5 mM dithiothrietol, 0.1 mM bacitracin, 1.2 mM phenylmethane sulfonyl fluoride and 0.5 mM o-phenanthroline). […] All assays were run in duplicate or triplicate. The reaction mixtures were incubated at 37° C. for 30 minutes and centrifuged in a Beckman Microfuge (4 minutes) immediately after adding 1 ml of ice-cold incubation buffer. The supernatant was aspirated and discarded, pellets were counted with a Beckman gamma 5000. […]

[4] = tested on: gastrin; details: background literature; in vitro; cited from earlier work

| Compound | CCK antagonism (in words) [1] | other results |
| --- | --- | --- |
| CSCC[C@H](NC(=O)OC(C)(C)C)C(=O)N[C@@H](CC(=O)O)C(=O)N[C@@H](Cc1ccccc1)C(N)=O [Boc-Met-Asp-Phe-NH2] (Boc-Met-Asp-Phe-NH2) | can function as CCK antagonists |  |
| CSCC[C@H](NC(=O)[C@H](Cc1ccc(OS(=O)(=O)O)cc1)NC(=O)OCc1ccccc1)C(=O)NCC(=O)N[C@@H](Cc1c[nH]c2ccccc12)C(=O)N[C@@H](CCSC)C(=O)N[C@@H](CC(=O)O)C(N)=O [Cbz-Tyr(SO3 H)-Met-Gly-Trp-Met-Asp-NH2] (Cbz-[sY]MGWMD-NH2) | can function as CCK antagonists; also recorded: partial agonist |  |
| CN1C(=O)[C@@H](NC(=O)c2cc3cc(O)ccc3[nH]2)N=C(c2ccccc2)c2ccccc21 [Example 15, 1,3-Dihydro-3-(5-hydroxyindole-2-carbonylamino)-1-methyl-5-phenyl-2H-1,4-benzodiazepin-2-one] |  | IC50 [2]: 0.91 µM |
| CSCC[C@H](N)C(=O)N[C@@H](CC(=O)O)C(=O)N[C@@H](Cc1ccccc1)C(N)=O [Met-Asp-Phe-NH2] (H-Met-Asp-Phe-NH2) | can function as CCK antagonists |  |
| CCCC(=O)Nc1nc2c(ncn2[C@@H]2O[C@@H]3COP(=O)(O)O[C@H]3[C@H]2OC(=O)CCC)c(=O)[nH]1 [dibutyryl cyclic GMP] | the most potent |  |
| c1cnc2c(c1)ccc1cccnc12 [o-phenanthroline] |  | effect on the 125-CCK receptor binding assay [3]: no effect |
| O=S(=O)(F)Cc1ccccc1 [phenylmethane sulfonyl fluoride] |  | effect on the 125-CCK receptor binding assay [3]: no effect |
| CCCN(CCC)C(=O)C(CCC(=O)O)NC(=O)c1ccccc1 (centres unmarked) [proglumide] |  | gastrin antagonism (in words) [4]: very weak in vitro antagonists |
